According to paper PMC4019984, “Kinase and channel activity of TRPM6 are co-ordinated by a dimerization motif and pocket interaction” (Biochemical Journal, 2014):

What was measured:
Assay type in all cases: binding, human
[1] = tested on: GST-tagged TRPM6-(1730–end) L1743A; assay: Peptide pull-down, L1743A mutant; details: HEK-293 lysate, 3 μg peptide, 4°C, anti-GST immunoblot
Experimental: (§1) The peptides biotin-C6-[…]-TIPFTPVQLFAGEEITV (wild-type) and biotin-C6-LKSPQE-[…] (mutant) were purchased from GL Biochem. For a peptide pull-down, 1–5 mg of lysate was incubated with 3 μg of the respective peptide for 10 min at 4°C under gentle agitation, followed by 5 min of incubation with 10–20 μl of streptavidin beads at 4°C. The immunoprecipitates were washed three times with lysis buffer containing 0.15 M NaCl and then twice with buffer A. Proteins were eluted by resuspending washed immunoprecipitates in 30 μl of SDS sample buffer. […]
(§2) Figure 3 Analysis of the dimerization pocket residues (A) Structural model of TRPM6 based on TRPM7 α-kinase depicting the binding of Leu^1718 and Leu^1721 to other residues in the α-kinase domain. […] The samples were analysed by immunoblotting with anti-GST antibody (top panel). […] (C) Fluorescence polarization analysis of the dimerization motif peptide with E. coli purified GST-tagged TRPM6-(1730–end) and indicated mutants. […] Proteins were separated by SDS/PAGE, stained with Coomassie Blue (top and middle panels) and MBP phosphorylation was detected by autoradiography (bottom panel). […] Proteins were separated by SDS/PAGE, stained with Coomassie Blue (top and middle gels) and MBP phosphorylation was detected by autoradiography (bottom gel). […]

[2] = tested on: full-length FLAG-tagged kinase-inactive TRPM6; assay: Peptide pull-down, full-length kinase-inactive TRPM6; details: full-length kinase-inactive TRPM6, HEK-293 lysate, 3 μg peptide, 4°C; anti-FLAG immunoblot
Experimental: The peptides biotin-C6-[…]-TIPFTPVQLFAGEEITV (wild-type) and biotin-C6-LKSPQE-[…] (mutant) were purchased from GL Biochem. For a peptide pull-down, 1–5 mg of lysate was incubated with 3 μg of the respective peptide for 10 min at 4°C under gentle agitation, followed by 5 min of incubation with 10–20 μl of streptavidin beads at 4°C. The immunoprecipitates were washed three times with lysis buffer containing 0.15 M NaCl and then twice with buffer A. Proteins were eluted by resuspending washed immunoprecipitates in 30 μl of SDS sample buffer.
Figure 2 Identification of dimerization motif residues in TRPM6 (A) Structural model of TRPM7 α-kinase depicting the N-terminal non-catalytic α-helix of one monomer that interacts with the kinase segment of the other monomer. (B) Fluorescence polarization analysis of wild-type (WT) and mutant (Mut) dimerization motif peptides with E. coli-purified GST-tagged TRPM6-(1730–end). […] The samples were analysed by immunoblotting with anti-GST antibody (top panel). […] Proteins were separated by SDS/PAGE, stained with Coomassie Blue (top and middle gels) and MBP phosphorylation was detected by autoradiography (bottom gel). […] Proteins were separated by SDS/PAGE, stained with Coomassie Blue (top and middle gels) and MBP phosphorylation was detected by autoradiography (bottom gel). […] The pull-down samples were analysed by immunoblotting with anti-FLAG antibody (top panel). […]

[3] = tested on: GST-tagged TRPM6-(1730–end) Q1832K; assay: Peptide pull-down, Q1832K mutant; details: HEK-293 lysate, 3 μg peptide, 4°C, anti-GST immunoblot
Experimental: as §1, §2

[4] = tested on: GST-tagged TRPM6-(1730–end) L1919Q; assay: Peptide pull-down, L1919Q mutant; details: HEK-293 lysate, 3 μg peptide, 4°C, anti-GST immunoblot
Experimental: as §1, §2

biotin-C6-LKSPQEPHHHYSAIERNNLMRLSQ-TIPFTPVQLFAGEEITV [biotinylated dimerization motif peptide, biotin-C6 wild-type dimerization motif peptide; conjugated to streptavidin–Sepharose]
binding to biotinylated dimerization motif peptide (pull-down) [1]: abolished binding to the peptide | interaction with biotinylated dimerization motif peptide (pull-down) [2]: do not interact | binding to biotinylated dimerization motif peptide (pull-down) [3]: abolished binding to the peptide | binding to biotinylated dimerization motif peptide (pull-down) [4]: abolished binding to the peptide
